The numbers were not newly measured in patent US7968712B2, “Process for the resolution of zopiclone and intermediate compounds” (Esteve Quimica, S.A., priority 2007, dated 2011), which cites them from elsewhere.

The conditions of series [1]: compared with racemic zopiclone.
For series [2] the following is noted: compared with racemic zopiclone. This is another data set of the same source.

In the case of `CN1CCN(C(=O)O[C@@H]2c3nccnc3C(=O)N2c2ccc(Cl)cn2)CC1` (single isomer, unassigned) [laevorotatory isomer], in series [1], the “activity relative to the racemate” value is “almost inactive”. Also, the “toxicity relative to the racemate” value in series [2] is reported as “more toxic than the racemate”.

Turning to `CN1CCN(C(=O)O[C@H]2c3nccnc3C(=O)N2c2ccc(Cl)cn2)CC1` [dextrorotatory enantiomer, eszopiclone], the “toxicity relative to the racemate” value in series [2] is reported as “lower toxicity than that of the racemate”.
